Results on 3 molecules are retold here after patent US9120789B2, “1-(5-tert-butyl-2-phenyl-2H-pyrazol-3-yl)-3-[2-fluoro-4-(1-methyl-2-oxo-2,3-dihydro-1H-imidazo[4,5-b]pyridin-7-yloxy)-phenyl]-urea and related compounds and their use in therapy” (CANCER RESEARCH TECHNOLOGY LIMITED, priority 2010, dated 2015).

This assay has as its system A375M human melanoma cells (mutant BRAF) xenograft. The assay is described as follows: Xenograft study, mutant BRAF A375. Format: in vivo, mice. The settings on record: for Factor of tumour volume reduction as compared to the control: over the timescale of the study. The method, then:
Biological Methods—Xenograft Studies
SW620 human colorectal carcinoma cells (mutant RAS, 7×10^7) or A375M human melanoma cells (mutant BRAF, 10^7) were inoculated sub-cutaneously in suspension (0.2 mL) into the right flank of female Crl:CD1-Foxn1nu athymic mice. Groups were assigned to treatment following stratified allocation of tumour volumes. Treatment with test compound began between days 11-14 post-cell administration. For gavage, a suspension (DMSO:water, 1:19, v/v at 10 m L/kg) was administered. Control animals received a similar dosage of vehicle (DMSO:water, 1:19, v/v). Treatment with test compound was continued once daily for 24 doses.

Turning to `Cc1ccc(-n2nc(C(C)(C)C)cc2NC(=O)Nc2ccc(Oc3ccnc4[nH]c(=O)n(C)c34)c3ccccc23)cc1` [BB-02, 1-(1-N-p-tolyl-3-tert-butyl-pyrazol-5-yl)-3-(4-(2-oxo-2,3-dihydro-1-N-methyl-1H-imidazo[4,5-b]pyridin-7-yl-oxy)naphthalen-1-yl)urea], the “Factor of tumour volume reduction as compared to the control” value is reported as “about 1.5”.
For the molecule `Cn1c(=O)[nH]c2nccc(Oc3ccc(NC(=O)Nc4cc(C(C)(C)C)nn4-c4ccccc4)c(F)c3)c21` [AA-01, 1-(3-Tert-butyl-1-phenyl-1H-pyrazol-5-yl)-3-(2-fluoro-4-(1-N-methyl-2-oxo-2,3-dihydro-1H-imidazo[4,5-b]pyridin-7-yloxy)phenyl)urea], the “Factor of tumour volume reduction as compared to the control” value was “about 2.5”.
Take `Cc1ccc(-n2nc(C(C)(C)C)cc2NC(=O)Nc2ccc(Oc3ccnc4[nH]c(=O)n(C)c34)cc2)cc1` [XX-02, 1-(1-N-p-tolyl-3-tert-butyl-pyrazol-5-yl)-3-(4-(2-oxo-2,3-dihydro-1-N-methyl-1H-imidazo[4,5-b]pyridin-7-yl-oxy)phenyl)urea]: the “Effect on tumour volume as compared to the control (in words)” value is “at least to some degree effective”.
